Measurements reported in patent US10561642B2, “Treatment of Zika virus infections using alpha-glucosidase inhibitors” (FLORIDA STATE UNIVERSITY RESEARCH FOUNDATION, INC., priority 2016, dated 2020).

Legend:
[1] = tested on: Japanese encephalitis virus; conditions: compared with Dengue virus; cited from earlier work
[2] = tested on: Japanese encephalitis virus; conditions: upon treatment; cited from earlier work
FSS-13025 strain of ZIKV = assay: Anti-ZIKV activity in SNB-19 cells, ZIKV NS1 expression by Western blot; assay type: cell-based, Zika virus; conditions: 100 μm, 500 μm and 1 mM, treated one hour prior to inoculation (MOI=1), harvested 24 hours post-infection
Protocol: FIG. 1. Castanospermine as anti-ZIKV compound. Castanospermine was screened for antiviral activity against ZIKV infection. Glioblastoma SNB-19 cells were treated with castanospermine at the indicated concentrations one hour prior to inoculation with the FSS-13025 strain of ZIKV (at MOI=1). Cells were harvested 24 hours post-infection and analyzed by Western blot for ZIKV-NS1 or GAPDH.
Cells of the glioblastoma SNB-19 cell line were maintained at 37° C. in 5% CO2 in […], 1× penicillin/streptomycin, and 10% fetal bovine serum (Invitrogen). SNB-19 cells were treated with castanospermine at increasing concentrations (100 μm, 500 μm, and 1 mM) one hour prior to inoculation with the FSS-13025 strain of ZIKV. Cells were harvested 24 hours post-infection and analyzed by Western blot for ZIKV-NS1 or GAPDH.

| Compound | Effect on cell infection by Japanese encephalitis virus [1] | Mortality rate among mice given a lethal dose of Japanese encephalitis virus [2] | Inhibition of ZIKV infection (ZIKV protein NS1 expression) (FSS-13025 strain of ZIKV) |
| --- | --- | --- | --- |
| CCCCCCCCCN1C[C@H](O)[C@@H](O)[C@H](O)[C@H]1CO [NN-DNJ, N-nonyl-deoxynojirimycin] | suppressed cell infection but to a lesser extent than with Dengue virus | decreased mortality rate | – |
| O[C@H]1[C@H](O)[C@@H](O)CN2CC[C@H](O)[C@H]12 [castanospermine, (1S,6S,7R,8aR)-Tetrahydroxyoctahydroindolizine] | – | – | significantly inhibit ZIKV infection |
